This is an account of results in patent publication US6861405B2, “Compositions and methods relating to glucose metabolism, weight control, and food intake” (priority 2001, dated 2005).

The target in one test is Kv1.3 (Homo sapiens, UniProt P22001). Particulars: cited from earlier work; for inhibition of Kv1.3 activity: therapeutic levels.
The conditions of test [1]: therapeutic dosages; cited from earlier work.
Another test concerns C57BL/6 mice. The test can be described thus: Insulin sensitivity (blood glucose after IP human insulin) in wild type C57BL/6 mice given margatoxin. The class given is in vivo, mouse. The procedure:
Plasma insulin levels and insulin sensitivity: Seven-week old C57BL6/6J male mice (n=5) were given 0.1 μg/gram body weight margatoxin 20 hours prior to study via IP injection. Controls (n=5) were sham injected with phosphate buffered saline (PBS). Two hours prior to study a second injection of margatoxin was administered to the treated experimental group. At t=0, both groups received human insulin as described previously. Blood glucose measurements were performed at the times indicated.

The test system of test [2] is ob/ob mice. The test can be described thus: Insulin sensitivity (blood glucose after IP human insulin) in non-fasting ob/ob mice given toxin. Particulars: for insulin sensitivity: non-fasting ob/ob mice, toxin IP 30 minutes before insulin. Type of test: in vivo, mouse. How it is done: Non-fasting ob/ob (obese) mice (n=5), were given margatoxin 30 minutes prior to study as described elsewhere herein. Age-matched control ob/ob mice were sham injected with PBS. Both groups were given human insulin and blood glucose levels were monitored as described previously.
Non-fasting ob/ob (obese) mice (n=5), were given kaliotoxin (Alomone, Israel) 30 minutes prior to study as described elsewhere herein. Age-matched control ob/ob mice were sham injected with PBS. Both groups were given human insulin and blood glucose levels were monitored as described previously.

In the next test the test system is db/db mice. Description: Insulin sensitivity (blood glucose after IP human insulin) in fasting db/db mice given margatoxin. Type of test: in vivo, mouse. How it is done:
Fasting db/db (diabetic) mice (n=5), were given margatoxin 30 minutes prior to study as described elsewhere herein. Age-matched control db/db mice were sham injected with PBS. Both groups were given human insulin and blood glucose levels were monitored as described previously.

The subject of test [3] is ob/ob mice. Description: Long-term pharmacological inhibition of Kv1.3 in ob/ob mice: food consumption and body weight. The class given is in vivo, mouse. The procedure:
Long-term pharmacological inhibition of Kv1.3: Ob/ob mice were injected intraperitoneally with margatoxin or PBS (n=5 for each group) on days 0, 5, and 16 as described herein. Food consumption was monitored for 30 days, and weights were measured at the end of 30 days.

The subject of the next test is L6 cells. Description: D-glucose uptake in L6 cells. Type of test: cell-based, rat. How it is done:
D-glucose uptake in L6 cells: L6 cells were maintained in Dulbecco's Modified Eagle's Medium (DMEM) containing 10% fetal bovine serum (FBS) and 1% penicillin-streptomycin in T-75 flasks at 37° C. and 5% CO2. To promote fusion into myotubules and quiescence, L6 cells were seeded onto 10 cm^2 flasks at a density of 3000 cells/cm^2 in DMEM containing 2% FBS. Myotube formation was determined by the percentage of nuclei in multinucleated cells. Glucose uptake assays were performed when 80-90% of the myoblasts fused into myotubes. Cells were serum starved for 3 hours in DMEM containing 0.2% bovine serum albumin, washed twice in PBS with 0.1 mM CaCl2, 0.1 MgCl2, 10 mM HEPES, pH 7.4. […] 2-deoxy-(^3H)D-glucose (1 μCi/ml, 10 μM/liter) uptake was measured in triplicate over a 10 minute period. The reaction was terminated by washing with ice-cold PBS. Non-specific uptake was determined by adding 10 mM phloretin and was subtracted from total uptake. Cells were lysed in 0.1 N KOH, and glucose uptake was measured by liquid scintillation (Packard BioScience, Meriden Conn.). […] was measured by Bradford Assay.

The next test concerns the target Kv1.2 (Homo sapiens, UniProt P16389). Particulars: cited from earlier work.
The next test has as its target Kv1.1 (Homo sapiens, UniProt Q09470). Particulars: cited from earlier work.

Entries after “also recorded” stand apart in the source; their conditions may differ.

Chain of Kv1.3 (P22001 whole entry): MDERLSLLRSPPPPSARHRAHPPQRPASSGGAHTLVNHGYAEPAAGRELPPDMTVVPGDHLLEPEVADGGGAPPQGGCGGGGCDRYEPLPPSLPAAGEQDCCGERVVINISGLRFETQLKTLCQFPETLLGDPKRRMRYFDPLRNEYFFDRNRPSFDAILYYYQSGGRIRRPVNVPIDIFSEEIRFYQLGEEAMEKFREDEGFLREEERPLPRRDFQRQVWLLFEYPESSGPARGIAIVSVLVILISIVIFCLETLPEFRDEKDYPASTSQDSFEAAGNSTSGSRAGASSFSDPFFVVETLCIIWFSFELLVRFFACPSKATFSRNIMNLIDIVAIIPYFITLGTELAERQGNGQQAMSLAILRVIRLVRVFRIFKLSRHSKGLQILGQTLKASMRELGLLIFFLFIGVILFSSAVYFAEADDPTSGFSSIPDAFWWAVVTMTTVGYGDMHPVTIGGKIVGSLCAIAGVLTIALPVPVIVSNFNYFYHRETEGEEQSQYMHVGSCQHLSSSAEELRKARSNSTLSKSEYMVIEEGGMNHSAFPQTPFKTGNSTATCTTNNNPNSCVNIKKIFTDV
Chain of Kv1.2 (P16389 whole entry): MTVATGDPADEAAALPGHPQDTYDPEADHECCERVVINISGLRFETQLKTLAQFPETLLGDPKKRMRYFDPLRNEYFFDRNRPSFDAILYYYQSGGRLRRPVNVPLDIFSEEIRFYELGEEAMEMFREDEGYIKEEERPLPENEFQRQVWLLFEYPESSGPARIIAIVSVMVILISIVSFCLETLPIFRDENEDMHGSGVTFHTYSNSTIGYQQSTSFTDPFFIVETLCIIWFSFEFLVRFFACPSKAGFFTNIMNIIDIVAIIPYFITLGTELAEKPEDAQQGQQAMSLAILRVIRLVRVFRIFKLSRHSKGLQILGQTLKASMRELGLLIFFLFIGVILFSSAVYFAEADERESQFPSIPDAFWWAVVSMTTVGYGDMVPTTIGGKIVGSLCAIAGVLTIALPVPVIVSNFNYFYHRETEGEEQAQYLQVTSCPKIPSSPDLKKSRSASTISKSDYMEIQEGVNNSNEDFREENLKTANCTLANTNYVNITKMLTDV
Chain of Kv1.1 (Q09470 whole entry): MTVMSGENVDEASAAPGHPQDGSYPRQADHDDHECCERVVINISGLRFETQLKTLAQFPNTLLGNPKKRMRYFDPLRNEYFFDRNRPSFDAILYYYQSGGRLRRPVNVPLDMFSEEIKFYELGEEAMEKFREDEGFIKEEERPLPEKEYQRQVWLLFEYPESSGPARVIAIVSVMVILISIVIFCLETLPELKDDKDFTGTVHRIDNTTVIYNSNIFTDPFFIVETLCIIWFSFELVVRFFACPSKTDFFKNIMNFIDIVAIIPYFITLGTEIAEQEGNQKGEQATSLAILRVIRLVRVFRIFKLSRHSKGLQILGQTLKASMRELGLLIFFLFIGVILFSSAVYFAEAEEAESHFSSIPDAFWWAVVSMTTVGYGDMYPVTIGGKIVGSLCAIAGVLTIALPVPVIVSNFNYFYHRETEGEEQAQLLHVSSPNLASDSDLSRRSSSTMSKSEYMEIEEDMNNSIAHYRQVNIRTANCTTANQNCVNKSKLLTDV

`COc1ccc(CCN(C)CCCC(C#N)(c2ccc(OC)c(OC)c2)C(C)C)cc1OC` (stereo not drawn) [verapamil]: the “inhibition of Kv1.3 activity” value on Kv1.3 was “inhibit Kv1.3 activity”. In [1], the insulin sensitivity result is reported as “increase insulin sensitivity”.
Consider `CNCCC(Oc1ccc(C(F)(F)F)cc1)c1ccccc1` (stereo not drawn) [fluxetine], for which the “inhibition of Kv1.3 activity” value on Kv1.3 is reported as “inhibit Kv1.3 activity”. Further, the insulin sensitivity result in test [1] was “increase insulin sensitivity”.
For the compound “margatoxin (TIINVKCTSPKQCLPPCKAQFGQSAGAKCMNGKCKCYPH)”, the insulin sensitivity result in the test with C57BL/6 mice (C57BL/6 mice, 0.1 μg/gram margatoxin IP, vs sham (PBS) injected controls) is on record as “increased insulin sensitivity”. The fasting blood glucose result with C57BL/6 mice (wild type C57BL/6 mice, margatoxin injection prior to study, vs PBS) is “lower fasting blood glucose”. For the same compound, in the test with C57BL/6 mice (wild type C57BL/6 mice, toxin-treated vs PBS), the “blood glucose in response to insulin” value is listed as “significantly lower blood glucose in response to insulin”. Also, in the test with ob/ob mice [2] (vs PBS), the insulin sensitivity result is on record as “significantly increased insulin sensitivity; also recorded: significantly more sensitive to insulin”. In the test on ob/ob mice [2] (ob/ob mice, margatoxin vs PBS), the “time after insulin at which difference in glucose level was evident” value is ≤ 30 min and the “time for which difference in glucose level persisted” value is “at least 3 hours”. Besides, the “fall in blood glucose in response to insulin administration, greater than in control mice” value with ob/ob mice [2] (ob/ob mice, single injection of margatoxin, vs PBS) amounted to 50%. The “fall in blood glucose of mice receiving insulin” value in the test with db/db mice (db/db mice, margatoxin and insulin vs PBS and insulin) is reported as “significantly greater fall in blood glucose”. Besides, in the test on db/db mice (db/db mice, margatoxin vs PBS), the “time at which difference in glucose levels was evident” value is ≤ 30 min and the “time for which difference in glucose levels persisted” value is given as “up to 4.5 hours”. In addition, the sensitivity to insulin entry in the test with db/db mice (fasting db/db mice, margatoxin IP 30 minutes before insulin, vs PBS) is “significant increase in sensitivity to insulin”. In addition, in the test with ob/ob mice [3] (ob/ob mice treated long term with margatoxin, IP days 0, 5, 16), the “body weight vs controls” value was “weighed significantly less than controls”. In the test with ob/ob mice [3] (ob/ob mice, weights assessed to day 36), the “body weight after margatoxin treatment ceased at day 16” value was “began to gain weight thereafter”. Also, the “glucose uptake in L6 cells, margatoxin together with insulin” value in the test on L6 cells (200 nM insulin and 250 nM margatoxin, vs either alone or neither) was “significantly increased glucose uptake; also recorded: additive to that of insulin”. The “glucose uptake in L6 cells” value in the test on L6 cells (2-deoxy-D-glucose, phloretin-sensitive uptake, 0.2-250 nM margatoxin) is recorded as “increases uptake of glucose in L6 cells in a dose dependent manner; also recorded: significant increase in phloretin-sensitive glucose uptake”. Moreover, in the test with L6 cells (L6 cells, read-out: concentration necessary for 1/2 maximal increase in glucose uptake), the EC50 came to 53 nM. Further, the “inhibition of Kv1.3” value in the test with Kv1.3 is “fairly specific and potent inhibitor of Kv1.3”. Also, the “inhibition of Kv1.2” value with Kv1.2 was “also blocks Kv1.2”.
By IC50 is commonly meant the concentration at which inhibition is half-maximal. For the compound kaliotoxin, in the test with ob/ob mice [2] (animals treated with kaliotoxin and insulin), the “blood glucose, toxin and insulin vs insulin only” value is given as “significantly lower blood glucose”. In the test on ob/ob mice [2] (vs PBS), the insulin sensitivity result is “significantly increased insulin sensitivity”. Besides, the IC50 with Kv1.3 is 0.6 nM; with Kv1.1, 40 nM. Moreover, the “inhibition of Kv1.2” value in the test with Kv1.2 is “but not Kv1.2”.
